Key:
[1] = administered orally to patients at about 300-600 mg/day; cited from earlier work
[2] = oral administration to rats; cited from earlier work
β1-35 peptide = target: T1, β1-35 peptide (Homo sapiens, UniProt P05067); assay: β-amyloid protein aggregation inhibition by SDS-PAGE (Example 1); type: biochemical; settings: drug agent 100 µg/ml; β1-35 peptide 2 mg/ml; room temperature; control and methanol solutions aggregated by the 7th day
T1 construct: made in house; host or cells: chemical solid-phase synthesis (Fmoc)
T1 sequence (P05067 672-706): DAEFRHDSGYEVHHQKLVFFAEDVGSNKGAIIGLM
Text: When synthesized β-amyloid protein is subjected to SDS-PAGE, a 3-4 kDa band due to the peptide monomer is observed. However, when the protein begins to aggregate, this monomer band becomes thinner and a smear is observed at the high molecular end (Tomiyama, et al. 1994, J. Biol. Chem. 269, 10205-10208). The inhibitory activity of a drug agent against β-amyloid protein aggregation may be determined by measuring the aggregation period of β-amyloid in admixture with the drug agent based on the decrease in peptide monomer or appearance of smearing observed with SDS-PAGE.
Specifically, 10 µl of solution is taken from a reagent solution containing β-amyloid protein and a drug agent, an equivalent of a sample buffer for electrophoresis (20 mM Tris-HCl buffer, pH 6.8, 40% glycerin, 2% SDS, 2% β-mercaptoethanol) is added thereto, and the mixture is boiled at 100°C for 5 minutes. Next, 10 µl of the solution is placed on a 15-25% polyacrylamide gradient gel for electrophoresis in a Tris-glycine buffered system. After completion of the electrophoresis, the gel is stained with 0.2% Coomassie brilliant blue solution and the amount of peptide monomer (band thickness) and presence of smearing is observed. […]

SMILES | maximum blood concentration [1] | LD₅₀ value [2] [mg/kg] | reduction in peptide monomer and appearance of smear (β1-35 peptide aggregation) (β1-35 peptide)
CO[C@H]1/C=C/O[C@@]2(C)Oc3c(C)c(O)c4c(O)c(c(/C=N/N5CCN(C)CC5)c(O)c4c3C2=O)NC(=O)/C(C)=C\C=C\[C@H](C)[C@H](O)[C@@H](C)[C@@H](O)[C@@H](C)[C@H](OC(C)=O)[C@@H]1C [rifampicin, Rifampicin] | about 10 µg/ml | 1720 | –
COC1C=COC2(C)Oc3c(C)c(O)c4c(O)c(cc(OCC(=O)O)c4c3C2=O)NC(=O)C(C)=CC=CC(C)C(O)C(C)C(O)C(C)C(OC(C)=O)C1C (stereo not shown) [rifamycin B, Rifamycin B] | – | – | no reduction in peptide monomer or smearing was observed up to the 14th day after dissolution
CO[C@H]1/C=C/O[C@@]2(C)Oc3c(C)c(O)c4c(O)c(cc(O)c4c3C2=O)NC(=O)/C(C)=C\C=C\[C@H](C)[C@H](O)[C@@H](C)[C@@H](O)[C@@H](C)[C@H](OC(C)=O)[C@@H]1C [rifamycin SV, Rifamycin SV] | – | – | no reduction in peptide monomer or smearing was observed up to the 14th day after dissolution

From EP0675126A1, “AMYLOID BETA-PROTEIN AGGLUTINATION AND/OR DEPOSITION INHIBITOR” (TEIJIN LIMITED, priority 1993, dated 1995)
